Test results reported in patent US11376228B2 (Genifarm Laboratories Inc, priority 2018, dated 2022).
Like-named read-outs stand apart in the source and are kept apart here.

Legend:
Assay type in all cases: cell-based
[1] = tested on: human lung cancer cells A549; experiment: MTT assay, proliferation of human lung cancer cells A549; details: for inhibitory effects on human lung cancer cells A549 (in words): A549, summary of Table 3; for effect compared with control gossypol I-A9, A549: A549, versus gossypol I-A9; for IC50: Homo sapiens, read-out: IC50 on the proliferation of human lung cancer cells A5499
Method: (§1) The original culture medium for human lung cancer cells A549 was removed, and human lung cancer cells A549 were rinsed with 2 mL of phosphate buffer saline (PBS), digested with 0.5 mL of pancreatic enzyme for 3 min. 2 mL of culture medium was added to the cells and the mixture was transferred to a centrifuge tube. The mixture was centrifuged (200 g) for 5 min. The supernatant was removed. 2 mL of culture medium was sprayed five times to the remaining solution. 0.5 mL of cell suspension was transferred to an Eppendorf (EP) tube and the cells were counted. The cells were cultured on a 96-well plate, each well having 2000 cells, 3 wells for each compound. The numbers of the required cells and wells and the amount of culture medium were calculated. The cells were diluted by the culture medium. 100 μL culture medium was added to each well and were evenly dispersed, each well containing 2000 cells. The cells were transferred to the wells using a pipette, and cultured in an incubator.
(§2) (2) Adding Compounds to Culture Medium
(§3) The original culture medium was discarded, and the mother liquor of each compound was diluted to final concentrations of 0, 5, 10, 20, 30, 60 and 80 μM, respectively. Each diluent was uniformized. To each head of a multichannel pipette, 100 μL of the diluent was introduced. Three heads were employed. The diluents were added to 3 marked wells (the cells were undamaged) of a tilted 96-well plate, respectively. Different concentrations of diluents were added to three different marked wells and evenly mixed by alternately sucking and blowing with the multichannel pipette 3 times. The 96-well plate was shaken slightly twice, and cultured in a CO2 incubator.
(§4) The cells were cultured in different compounds for 48 h and were then detected. Specifically, a clean bench was turned on for 15 min, and phosphate buffer saline (PBS) was pre-heated in a warm water bath for 15 min. MTT was taken out of a refrigerator at −20 degrees, protected from light and thawed (MTT stock solution was 5 mg/mL). MTT and a culture medium were mixed evenly in a V-shaped groove to yield a mixture comprising 500 μg/mL MTT and a culture medium (a volume ratio thereof being 1:10). 100 μL of the prepared MTT mixture was added to each well of the 96-well plate using the multichannel pipette, and then incubated at 37° C. for an appropriate time (1 h), thereby reducing the MTT to formazan (purple crystals formed in the cells under a microscope, which were different in medicated cells and unmedicated cells). The upper liquid was removed with a white pipette tip attached to a vacuum pump. For each concentration of the compounds, 3 pipette tips were employed. After the incubation, the MTT mixture was discarded, and then 100 μL of DMSO was added to each well using the multichannel pipette. The 96-well plate was shaken in a shaker for 10 min (until the purple crystals were dissolved in the cells under the microscope).
(§5) The absorbance value of the resulting solution was detected at a wavelength of 550 nm with a microplate reader. The survival rate of cells treated with different concentrations of drugs was calculated in accordance with the requirements to make a scatter plot. The IC50 results of each compound on the proliferation of human lung cancer cells A549 were shown in Table 3, where Gossypol I-A9 is a control sample.

[2] = tested on: human prostate cancer cells PC3; experiment: MTT assay, proliferation of human prostate cancer cells PC3; details: for IC50: Homo sapiens, 48 h, read-out: IC50 on the proliferation of human prostate cancer cells PC3; for inhibitory effects on human prostate cancer cells PC3 (in words): PC3, summary of Table 4; for effect compared with control gossypol I-A9, PC3: PC3, versus gossypol I-A9
[3] = tested on: human gastric cancer cells MKN45; experiment: MTT assay, proliferation of human gastric cancer cells MKN45; details: for IC50: Homo sapiens, read-out: IC50 on the proliferation of human gastric cancer cells MKN45; for inhibitory effects on human gastric cancer cells MKN45 (in words): MKN45, summary of Table 1
Method: as §1, with “gastric” for “lung”, “MKN45” for “A549”
as §2
as §3, with “15,” for “10, 20,”, “30, 45 and” for “30,”, “60” for “60 and 80”
as §4
The absorbance value of the cells was measured at a wavelength of 550 nm with a microplate reader. The survival rate of the cells treated with different concentrations of compounds was calculated to make a scatter plot. The IC50 results of each compound on the proliferation of human gastric cancer cells MKN45 were shown in Table 1, where Gossypol I-A9 is a control sample.

[4] = tested on: human ovarian cancer cells SKOV3; experiment: MTT assay, proliferation of human ovarian cancer cells SKOV3; details: for IC50: Homo sapiens, read-out: IC50 on the proliferation of human ovarian cancer cells SKOV3; for inhibitory effects on human ovarian cancer cells SKOV3 (in words): SKOV3, summary of Table 2; for effect compared with control gossypol I-A9, SKOV3: SKOV3, versus gossypol I-A9
Method: as §1, with “ovarian” for “lung”, “SKOV3” for “A549”
as §2
as §3, with “1, 2, 4, 8” for “5, 10, 20, 30, 60”, “16” for “80”
as §4
as §5, with “ovarian” for “lung”, “SKOV3” for “A549”, “2, wherein” for “3, where”

[5] = SK-OV-3, SKOV3, MTT, 48 h, 0-16 μM

## COc1ccc(-c2c(C)c(O)c(O)c(C=O)c2COCc2ccccc2)cc1 [Compound I-29]
[1]
  inhibitory effects on human lung cancer cells A549 (in words): inhibitory effects
  effect compared with control gossypol I-A9, A549: slightly inferior to that of the Gossypol I-A9
[1]; A549, MTT, 48 h, 0-80 μM
  IC50: 42.1 µM
[2]; PC3, MTT, 0-32 μM
  IC50: 4.26 µM
[2]
  inhibitory effects on human prostate cancer cells PC3 (in words): significant inhibitory effects
  effect compared with control gossypol I-A9, PC3: superior than the gossypol I-A9

## Cc1cc(C)cc(-c2c(C)c(O)c(O)c(C=O)c2COCc2ccccc2)c1 [Compound I-45]
[1]
  inhibitory effects on human lung cancer cells A549 (in words): inhibitory effects
  effect compared with control gossypol I-A9, A549: slightly inferior to that of the Gossypol I-A9
[1]; A549, MTT, 48 h, 0-80 μM
  IC50: 26 µM
[2]; PC3, MTT, 0-32 μM
  IC50: 6.57 µM
[2]
  inhibitory effects on human prostate cancer cells PC3 (in words): significant inhibitory effects
  effect compared with control gossypol I-A9, PC3: superior than the gossypol I-A9

## COC(=O)c1ccc(-c2c(C)c(O)c(O)c(C=O)c2Cc2c(OC)cc(OC)cc2OC)cc1 [Compound I-49]
[3]; MKN-45, MKN45, MTT, 48 h, 0-60 μM
  IC50: 3.12 µM
[3]
  inhibitory effects on human gastric cancer cells MKN45 (in words): significant inhibitory effects
[3]; MKN45, versus gossypol I-A9
  effect compared with control gossypol I-A9, MKN45: better than the control gossypol I-A9
[4]; [5]
  IC50: 5.92 µM
[4]
  inhibitory effects on human ovarian cancer cells SKOV3 (in words): significant inhibitory effects
  effect compared with control gossypol I-A9, SKOV3: superior to that of the gossypol I-A9
[2]; PC3, MTT, 0-32 μM
  IC50: 13.1 µM
[2]
  inhibitory effects on human prostate cancer cells PC3 (in words): significant inhibitory effects

## COc1cc(OC)c(Cc2cc(C)c(O)c(O)c2CO)c(OC)c1 [Compound I-97]
[3]
  inhibitory effects on human gastric cancer cells MKN45 (in words): significant inhibitory effects
[4]; [5]
  IC50: ≥ 35 µM

## C#CCOCc1c(C=O)c(O)c(O)c(C)c1-c1ccccc1 [I-A2]
[4]; [5]
  IC50: 11.5 µM
[4]
  inhibitory effects on human ovarian cancer cells SKOV3 (in words): significant inhibitory effects
[2]; PC3, MTT, 0-32 μM
  IC50: 5 µM
[2]
  inhibitory effects on human prostate cancer cells PC3 (in words): significant inhibitory effects
  effect compared with control gossypol I-A9, PC3: superior than the gossypol I-A9

## COc1cccc2c(OC)c(Cc3cc(C)c(O)c(O)c3C=O)ccc12 [I-A3]
[4]; [5]
  IC50: 6.45 µM
[4]
  inhibitory effects on human ovarian cancer cells SKOV3 (in words): significant inhibitory effects
  effect compared with control gossypol I-A9, SKOV3: superior to that of the gossypol I-A9
[2]; PC3, MTT, 0-32 μM
  IC50: 6.54 µM
[2]
  inhibitory effects on human prostate cancer cells PC3 (in words): significant inhibitory effects
  effect compared with control gossypol I-A9, PC3: superior than the gossypol I-A9

## COc1cc(OC)c(Cc2c(C#Cc3ccccc3)c(C)c(O)c(O)c2C=O)c(OC)c1 [I-A5]
[4]; [5]
  IC50: 9.79 µM
[4]
  inhibitory effects on human ovarian cancer cells SKOV3 (in words): significant inhibitory effects
[2]; PC3, MTT, 0-32 μM
  IC50: 4.19 µM
[2]
  inhibitory effects on human prostate cancer cells PC3 (in words): significant inhibitory effects
  effect compared with control gossypol I-A9, PC3: superior than the gossypol I-A9

## Cc1cc2c(C(C)C)c(O)c(O)c(C=O)c2c(O)c1-c1c(C)cc2c(C(C)C)c(O)c(O)c(C=O)c2c1O [I-A9, gossypol, reference compound]
[3]; MKN-45, 48 h
  IC50: 15.4 µM
[4]; SK-OV-3, 48 h
  IC50: 9.55 µM
[1]; A549, 48 h
  IC50: 18.1 µM
[2]
  IC50: 10 µM
